Marks after values point to notes of the source that are not given here.
Key:
[1] = Oral pharmacokinetic interaction study of LUME and 97-78 in rats (LC-ESI-MS/MS, non-compartmental analysis); assay type: in vivo, male Sprague–Dawley rats; settings: for RB% (relative bioavailability = AUC coadmin/AUC control × 100): LUME 10 mg/kg oral with 97-78 70 mg/kg oral vs LUME alone; for AUC(0-inf) / AUC(0-t) / CL/F / Cmax / Tmax / Vd/F / half-life: male, Sprague-Dawley, rat, plasma, po, 10 mg/kg, rats n = 5, mean ± SD
Experimental: Study was performed in male Sprague–Dawley rats (n = 5, weight range 200–220 g). The rats were fasted overnight (14–16 hrs) prior to the experiment but given free access to water. Rats were divided into three groups (n = 5 each): two control groups (LUME, 10 mg/kg, oral, suspension in 0.25% sodium CMC and 97–78, 70 mg/kg, oral, suspension in 0.25% sodium CMC), and one co-administration group (70 mg/kg of oral 97–78 and 10 mg/kg of oral LUME). Blood samples (approximately 0.25 mL) were collected from the retro-orbital plexus into heparinized microfuge tubes at 0.25, 0.50, 1, 3, 6, 9, 11, 13, 15, 24, 48, 72, and 120 hrs post-dosing and plasma was harvested by centrifuging the blood at 15,000xg for 10 min and stored frozen at −70 ± 10°C until bio-analysis.
Plasma data were subjected to non-compartmental pharmacokinetics analysis using WinNonlin (version 5.1, Pharsight Corp, Mountain View, CA, USA). The observed maximum plasma concentration (Cmax) and the time to reach the maximum plasma concentration (Tmax) were obtained by visual inspection of the experimental data. Area under the plasma concentration-time curve from time zero to the last quantifiable concentration (AUC0-t) was calculated using linear trapezoidal rule. The total area under the plasma concentration–time curve from time zero to time infinity (AUC0-∞) was calculated as the sum of AUC0-t and Clast/kel, where, Clast represents the last quantifiable concentration and Kel represents the terminal phase rate constant. The apparent elimination half-life (t1/2) was calculated as 0.693/kel and the kel was estimated by linear regression of the plasma concentrations in the log-linear terminal phase. The clearance (Cl/F); where F represents the oral bioavailability, was calculated as dose/AUC, and the volume of distribution (Vd/F) was calculated as (Cl/F)/kel. The data is presented as a mean ± SD. The pharmacokinetic parameters were compared using Student’s t test. A P-value of <0.05 was considered significant. The relative bioavailability (RB %) was calculated as follows: RelativebioavailabilityRB%=AUCcoadimin/AUCcontrol×100

[2] = design: method as in PMID 21428247; settings: cited from earlier work
[3] = design: method as in PMID 21428247; settings: cited from earlier work; remark: listed apart in the source
[4] = Stability of LUME and 97-63 in rat plasma (auto-sampler, bench top, freeze/thaw, freezer); assay type: in vitro ADME; settings: n = 6
Experimental: All stability studies were conducted at two concentration levels, i.e., QC low and QC high, using six replicates at each concentration levels. […] The peak areas of analyte and IS obtained at initial cycle were used as the reference to determine the stability at subsequent points. The stability of LUME and 97–63 in the biomatrix during 6 hrs of exposure at room temperature in rat plasma (bench top (BT)) was determined at ambient temperature (25 ± 2°C). Freeze/thaw (FT) stability was evaluated up to three cycles. In each cycle, samples were frozen for at least 12 hrs at −70 ± 10°C. Freezer stability of both analytes in rat plasma was assessed by analysing the QC samples stored at −70 ± 10°C for at least 15 days. Samples were considered to be stable if assay values were within the acceptable limits of accuracy (i.e., ±15% deviation) and precision (i.e., ±15% RSD).

[5] = 10 ng/mL, 6 hrs (BT) bench top 25 ± 2°C
[6] = 10 ng/mL, 24 hrs (AS) auto-sampler at 4°C, processed samples
[7] = 10 ng/mL, FT-3 (three freeze/thaw cycles, −70 ± 10°C)
[8] = 400 ng/mL, 6 hrs (BT) bench top 25 ± 2°C
[9] = 400 ng/mL, 24 hrs (AS) auto-sampler at 4°C, processed samples
[10] = 400 ng/mL, FT-3 (three freeze/thaw cycles, −70 ± 10°C)
[11] = LUME 10 mg/kg with 97-78 70 mg/kg oral, rats
[12] = LUME 10 mg/kg oral co-administered with 97-78 70 mg/kg oral
[13] = control: LUME 10 mg/kg oral alone

C=C(c1ccc(OC(C)(C)COC(=O)CCC(=O)O)cc1)C1OCC2(OO1)C1CC3CC(C1)CC2C3 (centres unmarked) [97-78]
effect of LUME co-administration on PK parameters of 97-78 other than Tmax ([1]; 97-78 70 mg/kg with LUME 10 mg/kg oral, rats): no significant effect | conversion into active metabolite 97-63 in vivo [2]: rapidly and completely converted | conversion to 97-63 in plasma [3]: rapidly converted

C=C(c1ccc(OC(C)(C)CO)cc1)C1OCC2(OO1)C1CC3CC(C1)CC2C3 (centres unmarked) [97-63]
Stability in rat plasma: Accuracy (%) [4, 5]: 93.85% | Stability in rat plasma: Accuracy (%) [4, 6]: 104.67% | Stability in rat plasma: Accuracy (%) ([4]; 10 ng/mL, 15 days at −70°C): 100.47% | Stability in rat plasma: Accuracy (%) [4, 7]: 98.16% | Stability in rat plasma: Accuracy (%) [4, 8]: 95.85% | Stability in rat plasma: Accuracy (%) [4, 9]: 100.45% | Stability in rat plasma: Accuracy (%) ([4]; 400 ng/mL, 15 days at −70°C): 98.72% | Stability in rat plasma: Accuracy (%) [4, 10]: 99.79%

CCCCN(CCCC)CC(O)c1cc(Cl)cc2c1-c1ccc(Cl)cc1C2=Cc1ccc(Cl)cc1 (centres unmarked) [LUME, 2-dibutylamino-1-[2,7-dichloro-9-(4-chlorobenzylidene)-9H-fluoren-4-yl]-ethanol]
RB% (relative bioavailability = AUC coadmin/AUC control × 100) ([1]; rats): 64.41^* % | RB% (relative bioavailability = AUC coadmin/AUC control × 100) ([1]; rats, listed as lumefantrine): 64.41% | decrease of AUC0-∞ of orally administered LUME in presence of 97-78 ([1]; LUME 10 mg/kg with 97-78 70 mg/kg oral vs LUME alone, rats, p <0.05): 63.26% | effect of 97-78 co-administration on Cmax of LUME [1, 11]: not significantly altered | effect of 97-78 co-administration on Tmax of LUME [1, 11]: not significantly altered | AUC(0-inf) [1, 12]: 11000 ± 660 ng·h/mL | AUC(0-t) [1, 12]: 10600 ± 710 ng·h/mL | CL/F [1, 12]: 15.2 mL/min/kg | Cmax [1, 12]: 1920 ± 620 ng/mL | Tmax [1, 12]: 4 ± 2.45 h | Vd/F [1, 12]: 62.7 ± 8.4 L/kg | half-life [1, 12]: 47.8 ± 6.48 h | AUC(0-inf) [1, 13]: 17400 ± 3290 ng·h/mL | AUC(0-t) [1, 13]: 16500 ± 2960 ng·h/mL | CL/F [1, 13]: 9.83 mL/min/kg | Cmax [1, 13]: 1810 ± 750 ng/mL | Tmax [1, 13]: 3.75 ± 1.5 h | Vd/F [1, 13]: 39.5 ± 6.26 L/kg | half-life [1, 13]: 46.9 ± 6.52 h | Stability in rat plasma: Accuracy (%) [4, 5]: 101.73% | Stability in rat plasma: Accuracy (%) [4, 6]: 103.72% | Stability in rat plasma: Accuracy (%) ([4]; 10 ng/mL, 15 days at −70°C): 105.73% | Stability in rat plasma: Accuracy (%) [4, 7]: 99.48% | Stability in rat plasma: Accuracy (%) [4, 8]: 101.03% | Stability in rat plasma: Accuracy (%) [4, 9]: 101.51% | Stability in rat plasma: Accuracy (%) ([4]; 400 ng/mL, 15 days at −70°C): 102.54% | Stability in rat plasma: Accuracy (%) [4, 10]: 106.78%

Reference: publication PMC4429480, “Simultaneous quantification of proposed anti-malarial combination comprising of lumefantrine and CDRI 97–78 in rat plasma using the HPLC–ESI-MS/MS method: application to drug interaction study” (Malaria Journal, 2015)
